This is an account of results in patent publication US20090197818A1, “Use Of Ribose for Recovery From Anaesthesia” (priority 2004, published 2009).

Series [1] has as its system patients undergoing valve surgery plus CABG or CABG alone with aortic cross clamping. Kind of series: Double-blind placebo-controlled clinical trial of intravenous D-Ribose in cardiac surgery: ejection fraction by echocardiography. The conditions noted are these: placebo EF declined; ANOVA repeated measures p=0.04. The format is in vivo, human. The text has this:
A protocol was devised to test whether human subjects undergoing either valve surgery plus coronary artery bypass graft (CABG) or CABG alone with decreased heart function would benefit from the administration of ribose following heart surgery as did the healthy dogs of the Foker study. […] Inclusion criteria were: • Males or females aged 18 or older • Patients with documented coronary artery disease undergoing CABG with an ejection fraction (EF) of ≦35% based on echocardiography, radionuclide imaging or cardiac catheterization done within eight weeks of surgery. […] For both the transesophageal and transthoracic echocardiograms, the following long axis and short axis mid-papillary area changes were measured in triplicate by acoustic quantification techniques: end diastolic area (EDA), end systolic area (ESA), fractional area change (FAC), +dA/dt and -dA/dt. All area change data were also analyzed by manual off line analysis. EF was also determined off line using a long axis view. In addition, regional wall motion was quantified as the following: normal=1, hypokinetic=2, akinetic=3 and dyskinetic=4. The wall motion index score (WMIS) and percentage normal myocardium were calculated by reading a maximum of sixteen segments. […]

Series [2] in a line: Blood glucose monitoring and clinical laboratory safety in the intravenous D-Ribose cardiac surgery trial. The format is in vivo, human. The method, then:
Blood glucose levels were determined hourly, after initiation of the study drug infusion, by dextrastix (Accu-Chk III, Boehringer Mannheim Corp. Indianapolis Ind.) using blood from an intraarterial catheter. If the blood glucose level remained stable for 12 hours, then subsequent blood glucose levels were measured every 4 to 6 hours until the study drug infusion was stopped. Other clinical laboratory measurements including complete CBC with differential, platelet count, electrolytes=, liver function studies, serum osmolarity, and urinalysis were completed the morning following surgery. Abnormal laboratory tests were repeated as clinically indicated until normal or determined not to be clinically significant.
Five patients (28%) in the ribose treated group developed hypoglycemia (fingerstick glucose<70 mg/dl)) a known side effect of this pentose sugar. No placebo treated patients developed hypoglycemia. The mean glucose level in those patients developing hypoglycemia was 58 mg/dl. The lowest glucose level was 31 mg/dl. […] The study drug infusion was stopped in two subjects because of hypoglycemia. […] There were no statistical differences in the other clinical laboratory measurements.

Series [3] deals with adult patients selected for OCBP revascularization. In words: Presurgical oral D-ribose loading before off cardiopulmonary bypass (OCBP) revascularization: cardiac indices. The format is in vivo, human. The conditions noted are these: 24 patients oral D-ribose preoperatively vs 20 without; baseline to post-operative; p<0.028. The text has this:
Patients with stable coronary artery disease or patients presenting with acute myocardial infarction may undergo revascularization using an “off” cardiopulmonary bypass procedure (“OCBP”). This procedure avoids the deleterious effects of cross-clamping in patients who can be selected for the procedure. The selection criteria include: accessibility of the grafts; number of the grafts; condition of the patient. When the area to be revascularized is at the back of the heart, the heart will need to be handled and rotated, which would interfere with the beating of the heart. If several grafts are needed, the time of operation is prolonged and the patient's heart will need to support circulation for a long time. Finally, a poorly functioning heart will need the assistance of the pump to support circulation. Nevertheless, in properly selected patients, the benefits of avoiding cross-clamping are substantial.
Forty-four adult patients were enrolled in a trial. At least one-third of the patents had sustained an acute myocardial infarction prior to presentation and pre-operative ejection fractions ranged from 30-72%. All patients were selected for OCBP revascularization with 20 patients consuming no pre-operative ribose and 24 patients given oral D-ribose preoperatively, cardiac indices were measured at baseline and post-operatively. […]

The subject of series [4] is patients recovering from hip or knee replacement operations. Kind of series: Anecdotal results from non-cardiac surgery with general anaesthesia. The format is in vivo, human. The text has this:
For example, a person underwent two hip replacement operations, five months apart. With the second operation, they began taking oral ribose immediately after their recovery from anaesthesia. Their recovery to a feeling of alertness and energy was more rapid than after the first operation. Furthermore, their level of pain was less. Likewise, a person also underwent two knee replacement operations. With the second operation, they self-administered D-Ribose pre- and postoperatively. Their recovery to a feeling of alertness and energy was more rapid than after the first operation. Bauer et al. (Z. Geb. Neonatal 2001 May-June, 205(3):80-85) studied the efficacy of oral glucose for treating procedural pain in neonates. […] The authors proposed that the orogustatory stimulation by the sweet taste caused an endorphin release. It is not known whether the result seen was due to the local effect or to a systemic effect of glucose.

For series [5], the system named is patients with aortic valve disease undergoing AVR. In words: Planned clinical trial: preconditioning with oral D-Ribose before cross clamping, then intravenous infusion. The format is in vivo, human. The conditions noted are these: oral D-Ribose 7 or 14 days before surgery, then i.v. 100 mg/kg/hour for five days. The text has this:
A single-center, randomized, double-blinded placebo-controlled clinical trial was designed to determine if preoperative oral administration of D-Ribose, following by peri-operative and operative intravenous infusion of D-Ribose could improve the ejection fraction and other functional parameters of hearts that are cross-clamped for various cardiac surgical procedures. Thirty (30) patients meeting the inclusion and exclusion criteria and who have signed informed consent forms will be randomized to receive oral D-Ribose (15) or D-Glucose (placebo) (15) for seven or 14 days prior to their surgical procedure and intravenous 5% […] (5% D-Glucose in normal saline, 0.5 mL/kg/hour) or 10% pyrogen-free D-Ribose in 5% D5W at a dose of 100 mg/kg/hour for five (5) days through a pulmonary artery cordis) beginning at the time of aortic cross clamping. […] Patients will be evaluated baseline ×2, (once prior to beginning oral test supplement and again within three days prior to surgical procedure), during and after surgery, and at days 1, 5 and 7. […] Patients will be evaluated for eligibility within three days to first test article administration and evaluation will be updated within three days prior to surgery. […] A medication history will be taken and all medications recorded in the case report. […]

Series [6] deals with Wistar rats. In words: Planned non-cardiac sham abdominal surgery study under halothane anaesthesia. The format is in vivo, rat. The conditions noted are these: D-Ribose before, during and after sham operation. The method, then:
Littered-paired Wistar rats will be preconditioned with oral D-Ribose (250 mg/day, 10 animals) as a test drug or D-Glucose(250 mg/day, 10 animals) as a placebo for five days. Following the preconditioning, the rats will be anesthetized with halothane, intubated for artificial respiration and paralyzed with curare. Following general anaesthesia, the rats will be given either the test drug or placebo, intravenously (IV). A two-inch abdominal incision will be made and the viscera will be carefully manipulated to simulate an abdominal exploratory surgery. The incision will be closed and the animals will be held under anaesthesia for one additional hour. Following that hour, anaesthesia will be discontinued and the IV infusion will be halted. The animals will be placed individually in activity cages and their activity will be assessed daily for five days. Test drug or placebo will be added to the drinking water at a dosage of 5% wt/vol. The blinded results will be observed for: first movement (return to consciousness following the sham operation) and daily activity over the first day and next five days. Food and water intake and gastrointestinal function will be measured.

In series [7] the test system is cross-bred sheep.
Series [8] concerns healthy dog hearts. Particulars: D-Ribose from reperfusion for at least four days; U.S. Pat. No. 4,719,201; cited from earlier work.
The subject of series [9] is rats. Particulars: halothane for 30 minutes; Hendricks et al. 1984; cited from earlier work.

In the case of `O=C[C@H](O)[C@H](O)[C@H](O)CO` [D-Ribose], the “course of EF from baseline to Day 7 versus placebo” value in [1] is “EF was maintained”. Also, the “patients with neurological or other clinical symptoms associated with hypoglycemia” value in series [2] (hypoglycemic patients of the ribose treated group) is “None”. Besides, in [2] (ribose treated group), the lowest glucose level amounted to 31 mg/dL and the “mean glucose level in patients developing hypoglycemia” value worked out at 58 mg/dL. For the same compound, the “patients who developed hypoglycemia (fingerstick glucose<70 mg/dl)” value in series [2] (ribose treated group, five patients, none in placebo) is 28%. For the same compound, the “greater increase in cardiac indices compared to controls” value in series [3] is recorded as 49%. Further, in [4] (oral ribose at second operation, single patients), the “recovery to a feeling of alertness and energy compared with first operation” value is “more rapid”. Besides, the “level of pain compared with first operation” value in [4] (person, oral ribose after second hip replacement) is reported as “less”. Besides, in [5], the “expected myocardial function versus placebo” value is “better myocardial function”. Besides, in series [6], the “expected activity during the following five days versus placebo” value is listed as “increased activity” and the “expected first movement after anaesthesia versus placebo” value is on record as “earlier movement”. Also, the “time to cardiac arrest with cardioplegia containing ribose versus animals not given ribose” value in series [7] (difference not statistically significant) is reported as “somewhat faster”. Also, the “tolerability of supplemental ribose” value in series [7] (in vivo) was “no metabolic or chemical abnormalities”. The “time quiet and inactive after extubation” value in series [7] (untreated series: additional 2 hours) is “about one”. The “time to assume a consciousness state versus animals not given ribose” value in series [7] (upon weaning from the ventilator) is “faster”. The “ATP recovery after global myocardial ischemia” value in [8] is given as “enhanced ATP recovery”.
In the case of `FC(F)(F)C(Cl)Br` (centres unmarked) [halothane], the “behavioural effects during the first week after anaesthesia” value in series [9] is “reduced spontaneous activity and neurological deficit”.
